Structures can show the parent of a compound that is named as a salt. Where two headings read alike, the source gives them in different places.
Tested on: Target C
Experiment: RT-qPCR splicing assay, gene panel, Target C canonical junction (CJ) mRNA
Format: cell-based
Conditions: Homo sapiens, read-out: Target C CJ IC50
Method: Compounds described herein were used to modulate RNA transcript abundance in cells. The expression of a target mRNA was measured by detecting the formation of an exon-exon junction in the canonical transcript (CJ). A compound mediated exon-inclusion event was detected by observing an increase in formation of a new junction with an alternative exon (AJ). Real-time qPCR assays were used to detect these splicing switches and interrogate the potency of various compounds towards different target genes. A high-throughput real time quantitative PCR (RT-qPCR) assay was developed to measure these two isoforms of the mRNA (CJ and AJ) for exemplary genes, such as HTT, SMN2, and MYB, together with a control housekeeping gene, GAPDH or GUSB or PPIA, used for normalization. Briefly, the A673 or K562 cell line was treated with various compounds described herein (e.g., compounds of Formula (I)). After treatment, the levels of the HTT, MYB, or SMN2 mRNA targets were determined from each sample of cell lysate by cDNA synthesis followed by qPCR.
The A673 cell line was cultured in DMEM with 10% FBS. Cells were diluted with full growth media and plated in a 96-well plate (15,000 cells in 100 ul media per well). The plate was incubated at 37° C. with 5% CO2 for 24 hours to allow cells to adhere. An 11-point 3-fold serial dilution of the compounds was made in DMSO then diluted in media in an intermediate plate. Compounds were transferred from the intermediate plate to the cell plate with the top dose at a final concentration of 10 uM in the well. Final DMSO concentration was kept at or below 0.25%. The cell plate was returned to the incubator at 37° C. with 5% CO2 for an additional 24 hours.
The K562 cell line was cultured in IMDM with 10% FBS. For K562, cells were diluted with full growth media and plated in either a 96-well plate (50,000 cells in 50 uL media per well) or a 384-well plate (8,000-40,000 cells in 45 uL media per well). An 11-point 3-fold serial dilution of the compounds were made in DMSO then diluted in media in an intermediate plate. Compound was transferred from the intermediate plate to the cell plate with the top dose at a final concentration of 10 uM in the well. Final DMSO concentration was kept at or below 0.25%. Final volume was 100 uL for 96-well plate and 50 uL for 384-well plate. The cell plate was then placed in an incubator at 37° C. with 5% CO2 for 24 hours.
The cells were then gently washed with 50 uL-100 uL cold PBS before proceeding to addition of lysis buffer. 30 uL-50 μL of room temperature lysis buffer with DNAse I (and optionally RNAsin) was added to each well. Cells were shaken/mixed thoroughly at room temperature for 5-10 minutes for lysis to take place and then 3 uL-5 μL of room temperature stop solution was added and wells were shaken/mixed again. After 2-5 minutes, the cell lysate plate was transferred to ice for RT-qPCR reaction setup. The lysates could also be frozen at −80° C. for later use.
In some cases, a direct lysis buffer was used. An appropriate volume of 3× lysis buffer (10 mM Tris, 150 mM NaCl, 1.5%-2.5% Igepal and 0.1-1 U/uL RNAsin, pH 7.4) was directly added to either K562 or A673 cells in media and mixed by pipetting 3 times. The plates were then incubated at room temperature with shaking/rocking for 20-50 minutes to allow for lysis to take place. After this time, the cell lysate plate was transferred to ice to set up for the RT-qPCR reactions. The lysates could also be frozen at −80° C. for later use.
To set up 10 uL RT-qPCR reactions, cell lysates were transferred to 384-well qPCR plates containing the master mix according to the table below. The plates were sealed, gently vortexed, and spun down before the run. The volumes were adjusted accordingly in some instances where the reaction was carried in 20 μL. The table below summarizes the components of the RT-qPCR reactions:
The RT-qPCR reaction was performed using a QuantStudio (ThermoFisher) under the following fast cycling conditions. […]

[1] = decrease in CJ mRNA levels, larger panel of genes, Table 3

| Structure (SMILES) | IC50 [1] [µM] | IC50 [µM] |
| --- | --- | --- |
| Cc1cn2cc(-c3cc(F)c4nn(C5CCNCC5)cc4c3)cc(Cl)c2n1 [Compound 127, 5-(8-chloro-2-methylimidazo[1,2-a]pyridin-6-yl)-7-fluoro-2-(piperidin-4-yl)-2H-indazole hydrochloride salt] | 0.1 to 1 |  |
| Cc1cn2cc(-c3cc(F)c4nn(C5CCNCC5)cc4c3)cc(C)c2n1 [Compound 125, 5-(2,8-dimethylimidazo[1,2-a]pyridin-6-yl)-7-fluoro-2-(4-piperidyl)indazole] | 0.1 to 1 |  |
| Cc1cc(-n2cc3cc(C4CCNCC4)cc(F)c3n2)cc2cn(C)nc12 [Compound 115, 2-(2,7-dimethylindazol-5-yl)-7-fluoro-5-(4-piperidyl)indazole] | 1 to 10 |  |
| Cc1cn2nc(-c3cc(F)c4nn(C5CCN(C6CCC6)C6(CC6)C5)cc4c3)cc(C)c2n1 (stereo not drawn) [Compound 186, 6-[2-(4-cyclobutyl-4-azaspiro[2.5]octan-7-yl)-7-fluoro-indazol-5-yl]-2,8-dimethyl-imidazo[1,2-b]pyridazine] |  | < 0.1 |
| Cc1cn2nc(-c3cc(F)c4nn([C@@H]5CCNC[C@H]5F)cc4c3)cc(C)c2n1 [Compound 168, 6-(7-fluoro-2-((3R,4R)-3-fluoropiperidin-4-yl)-2H-indazol-5-yl)-2,8-dimethylimidazo [1,2-b]pyridazine] | 0.1 to 1 |  |
| Cc1cn2nc(-c3cc(F)c4nn(C5CCNC6(CC6)C5)cc4c3)cc(C)c2n1 (stereo not drawn) [Compound 171, 6-[2-(4-azaspiro[2.5]octan-7-yl)-7-fluoro-indazol-5-yl]-2,8-dimethyl-imidazo[1,2-b]pyridazine] | < 0.1 |  |
| Cn1cc2cc(-c3ccc4cn(C5CCNCC5)nc4c3)cc(F)c2n1 [Compound 148, 7-fluoro-2-methyl-5-[2-(4-piperidyl)indazol-6-yl]indazole] | > 10 |  |
| Cc1ncc2cc(-c3cc(F)c4nn(C5CCNCC5)cc4c3)ccc2n1 [Compound 165, 6-[7-fluoro-2-(4-piperidyl)indazol-5-yl]-2-methyl-quinazoline] | > 10 |  |
| CCN1CCC(n2cc3cc(-c4cc(C)c5nc(C)cn5n4)cc(F)c3n2)CC12CC2 (stereo not drawn) [Compound 177, 6-[2-(4-ethyl-4-azaspiro[2.5]octan-7-yl)-7-fluoro-indazol-5-yl]-2,8-dimethyl-imidazo[1,2-b]pyridazine] | < 0.1 |  |
| Cc1cn2nc(-c3cc(F)c4nn(C5CCNCC5)cc4c3)cc(C)c2n1 [Compound 122, 6-(7-fluoro-2-(piperidin-4-yl)-2H-indazol-5-yl)-2,8-dimethylimidazo [1,2-b]pyridazine hydrochloride salt] |  | < 0.1 |
| CCN1CCC(n2cc3cc(-c4cc(F)c5nn(C)cc5c4)cc(F)c3n2)CC1 [Compound 104, 2-(1-ethyl-4-piperidyl)-7-fluoro-5-(7-fluoro-2-methyl-indazol-5-yl)indazole] | 1 to 10 |  |
| Cc1cn2nc(-c3cc(F)c4nn(C5CCN(CCO)CC5)cc4c3)cc(C)c2n1 [Compound 160, 2-[4-[5-(2,8-dimethylimidazo[1,2-b]pyridazin-6-yl)-7-fluoro-indazol-2-yl]-1-piperidyl]ethanol] |  | 0.1 to 1 |
| Cc1nc2c(C)c(O)c(-c3cc(F)c4nn(C5CCNCC5)cc4c3)cc2o1 [Compound 123, 6-[7-fluoro-2-(4-piperidyl)indazol-5-yl]-2,4-dimethyl-1,3-benzoxazol-5-ol] | 1 to 10 |  |
| Cc1c(O)c(-c2cc(F)c3nn(C4CCNCC4)cc3c2)cc2cn(C)nc12 [Compound 126, 5-[7-fluoro-2-(4-piperidyl)indazol-5-yl]-2,7-dimethyl-indazol-6-ol] | 1 to 10 |  |
| Cc1cn2nc(-c3cc(F)c4nn(CC5CCNCC5)cc4c3)cc(C)c2n1 [Compound 212, 6-[7-fluoro-2-(4-piperidylmethyl)indazol-5-yl]-2,8-dimethyl-imidazo[1,2-b]pyridazine] | 0.1 to 1 |  |
| Cc1cn2nc(-c3cc(F)c4nn(C5CCN(CCO)C6(CC6)C5)cc4c3)cc(C)c2n1 (stereo not drawn) [Compound 180, 2-[7-[5-(2,8-dimethylimidazo[1,2-b]pyridazin-6-yl)-7-fluoro-indazol-2-yl]-4-azaspiro[2.5]octan-4-yl]ethanol] |  | 0.1 to 1 |
| Cc1cn2nc(-c3cc(F)c4nn(C5CCN(C)C6(CC6)C5)cc4c3)cc(C)c2n1 (stereo not drawn) [Compound 174, 6-[7-fluoro-2-(4-methyl-4-azaspiro[2.5]octan-7-yl)indazol-5-yl]-2,8-dimethyl-imidazo[1,2-b]pyridazine] | < 0.1 |  |
| Cc1nc2ccc(-c3cc(F)c4nn(C5CCNCC5)cc4c3)cc2s1 [Compound 134, 6-(7-fluoro-2-(piperidin-4-yl)-2H-indazol-5-yl)-2-methylbenzo[d]thiazole] | > 10 |  |

Further lines, with some results ahead:

| IC50 [1] [µM] | Structure (SMILES) | IC50 [µM] |
| --- | --- | --- |
| 0.1 to 1 | Cn1cc2cc(-c3ccc4nn(C5CCNCC5)cc4n3)c(O)c(F)c2n1 [Compound 107, 7-fluoro-2-methyl-5-[2-(4-piperidyl)pyrazolo [4,3-b]pyridin-5-yl]indazol-6-ol] |  |
| > 10 | Fc1cc(-c2ccc3ccncc3c2)cc2cn(C3CCNCC3)nc12 [Compound 158, 7-[7-fluoro-2-(4-piperidyl)indazol-5-yl]isoquinoline] |  |
| 0.1 to 1 | Cn1cc2cc(-c3ccc4nn(C5CCNCC5)cc4c3)cc(F)c2n1 [Compound 105, 7-fluoro-2-methyl-5-[2-(4-piperidyl)indazol-5-yl]indazole] |  |
| 0.1 to 1 | Cc1nc2ccc(-c3cc(F)c4nn(C5CCNCC5)cc4c3)cc2o1 [Compound 135, 6-[7-fluoro-2-(4-piperidyl)indazol-5-yl]-2-methyl-1,3-benzoxazole] |  |
| 0.1 to 1 | Cn1cc2cc(-c3cc(F)c4nn(C5CCNCC5)cc4c3)ccc2n1 [Compound 145, 7-fluoro-5-(2-methylindazol-5-yl)-2-(4-piperidyl)indazole] |  |
| < 0.1 | Cc1cn2nc(-c3cc(F)c4nn(C5CCN(CC6CC6)C6(CC6)C5)cc4c3)cc(C)c2n1 (stereo not drawn) [Compound 183, 6-[2-[4-(cyclopropylmethyl)-4-azaspiro[2.5]octan-7-yl]-7-fluoro-indazol-5-yl]-2,8-dimethyl-imidazo[1,2-b]pyridazine] |  |
| > 10 | Cc1ccc2nc(-c3cc(F)c4nn(C5CCNCC5)cc4c3)ccc2n1 [Compound 157, 2-[7-fluoro-2-(4-piperidyl)indazol-5-yl]-6-methyl-1,5-naphthyridine] |  |
| 1 to 10 | COc1cc(-c2cc3cn(C)nc3cc2O)nc2cn(C3CCNCC3)nc12 [Compound 140, 5-[7-methoxy-2-(4-piperidyl)pyrazolo[4,3-b]pyridin-5-yl]-2-methyl-indazol-6-ol] |  |
| 0.1 to 1 | Cc1cn2nc(-c3cc4cn(C5CCNCC5)nc4cc3O)cc(C)c2n1 [Compound 154, 5-(2,8-dimethylimidazo[1,2-b]pyridazin-6-yl)-2-(piperidin-4-yl)-2H-indazol-6-ol] |  |
| 0.1 to 1 | Cc1cn2nc(-c3cc(F)c4nn(C5CCNCC5F)cc4c3)cc(C)c2n1 (stereo not drawn) [Compound 166, 6-[7-fluoro-2-(3-fluoro-4-piperidyl)indazol-5-yl]-2,8-dimethyl-imidazo [1,2-b]pyridazine] |  |
| > 10 | Cc1nc2c(C)cc(-n3cc4cc(N5CCNCC5)cc(F)c4n3)cc2o1 [Compound 119, 6-(7-fluoro-5-piperazin-1-yl-indazol-2-yl)-2,4-dimethyl-1,3-benzoxazole] |  |
| 0.1 to 1 | COc1cc(-c2cc(C)c3nc(C)cn3n2)cc2cn(C3CCNCC3)nc12 [Compound 155, 6-(7-methoxy-2-(piperidin-4-yl)-2H-indazol-5-yl)-2,8-dimethylimidazo [1,2-b]pyridazine] |  |

— patent US20250082633A1, “COMPOUNDS AND METHODS FOR MODULATING SPLICING” (REMIX THERAPEUTICS INC., priority 2021, published 2025)
